The record followed here is PMC10814857, “Functional Classification and Interaction Selectivity Landscape of the Human SH3 Domain Superfamily” (Cells, 2024).

Assay [1] addresses T1, SH3PXD2A-1 SH3 domain (aa 166-225) (Homo sapiens, UniProt Q5TCZ1).
T1 construct: 166-225; GST (N); made in house; host or cells: Escherichia coli CodonPlus, Rosetta, BL21(DE3)
T1 sequence (Q5TCZ1 166-225): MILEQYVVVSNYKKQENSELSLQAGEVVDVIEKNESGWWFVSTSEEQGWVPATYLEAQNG
Description: Fluorescence polarization SH3 domain-PRP binding. As to conditions: FP, 0.2 µM fluorescein-labeled peptide, SH3 domain 0-200 µM, Tris/HCl pH 7.5, 25 °C, quadratic fit. In a few lines: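 FP titration: 0.2 µM fluorescent PRP + GST-SH3 0–200 µM; 30 mM Tris/HCl pH 7.5, 5 mM MgCl2, 3 mM DTT, 25 °C. Ex 470/em 560 nm. Kd by quadratic binding-equation fit; errors from fitting.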

Assay [2] deals with T2, NCK1-3Set-2 (N225E, W229G, K244E) SH3 domain (Homo sapiens, UniProt P16333, K244E/N225E/W229G).
T2 construct: 190–252; GST (N); made in house; host or cells: Escherichia coli (CodonPlus, Rosetta, BL21(DE3)), pGEX4-T1
As to the kind of experiment: Fluorescence polarization, SH3 domain mutant. Type of assay: binding. Conditions: NCK1-3 Set-2 mutant, FP, 0.2 µM fluorescent peptide, quadratic fit. The protocol:
(§1) The interaction between fluorescein-labeled proline-rich peptides (0.2 µM) and increasing concentrations of SH3 domains (ranging from 0 to 200 µM) was measured in a buffer (containing 30 mM Tris/HCl (pH 7.5), 5 mM MgCl2, and 3 mM DTT at 25 °C) in a total volume of 200 µL using a Fluoromax 4 fluorimeter in polarization mode and a quartz glass fluorescence cuvette (Hellma Ultra-Micro Cuvette 105.250-QS, Thermo Fisher Scientific, Waltham, MA USA). Excitation was performed at 470 nm and emission was measured at 560 nm. Dissociation constants (Kd) were determined by fitting the concentration-dependent binding curve to a quadratic ligand binding equation.
(§2) To better understand the role of the residues of SH3 domains in selective binding to PRPs, we have generated a multiple sequence alignment (Figure S7). It highlights the conserved and variable residues that are likely to be critical for the selectivity and affinity of the SH3 domain–PRM interactions. […] Two different sets of mutations were generated by substituting a combination of amino acids from ARHGAP12 and NCK1-3 for ABL2 and BIN1 and vice versa (Figure 3A; Table S1).
(§3) Figure S8. Mutational analysis of the SH3-fluorescent PRPs interactions using fluorescence polarization.
(§4) Fluorescent peptides (0.2 µM) were titrated with increasing concentrations of the corresponding SH3 domain mutants (see Figure 3A and Table S1). The x-axis represents SH3 domain concentrations as GST fusion proteins in µM, while the y-axis represents fluorescence polarization. The equilibrium dissociation constants (Kd) for the respective measurements were determined by fitting the titration curves to a quadratic ligand-binding equation […]
(§5) (solid lines). Error bars are derived from the fitting errors.
(§6) (1 picture or pasted object on this page, not shown here)
(In general: Fluorescence polarisation rises when a labelled molecule tumbles more slowly, as on binding a larger partner.)

In assay [3] the target is T3, ARHGAP12Set-1 (K28S, R30N, F62G, Y63W) SH3 domain (Homo sapiens, UniProt Q8IWW6, F62G/K28S/R30N/Y63W).
T3 construct: 12-74; GST (N); made in house; host or cells: Escherichia coli (CodonPlus, Rosetta, BL21(DE3)), pGEX4-T1
Description: Fluorescence polarization, SH3 domain mutant. It is filed as binding. Conditions: ARHGAP12 Set-1 mutant; FP, 0.2 µM fluorescent peptide, quadratic fit. The procedure: as §1, §2, §3, §4, §5, §6

pKd: −log10 of the molar value. Where two headings read alike, the source gives them in different places. Peptide text beside a SMILES is read from it.

T3 sequence (Q8IWW6 12-74 K28S/R30N/F62G/Y63W): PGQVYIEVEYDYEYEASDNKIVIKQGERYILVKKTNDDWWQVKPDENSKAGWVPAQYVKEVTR

As a reminder, the pKd is −log10 of the Kd, conventionally taken in molar units. As for `CC[C@H](C)[C@H](NC(=O)[C@H](C)NC(=O)[C@@H]1CCCN1C(=O)[C@@H]1CCCN1C(=O)[C@H](CO)NC(=O)[C@H](CC(=O)O)NC(=O)[C@@H](N)CC(C)C)C(=O)N1CCC[C@H]1C(=O)N1CCC[C@H]1C(=O)N[C@@H](CCCNC(=N)N)C(=O)N[C@@H](CCC(N)=O)C(=O)N1CCC[C@H]1C(=O)N[C@H](C(=O)N[C@@H](CO)C(=O)N[C@@H](CCCCN)C(=O)O)[C@@H](C)O` [Peptide P4] (H-LDSPPAIPPRQPTSK-OH), the pKd in assay [1] is under 3.70.
`CC(C)C[C@H](NC(=O)[C@@H]1CCCN1C(=O)[C@@H](NC(=O)[C@H](CCCNC(=N)N)NC(=O)[C@@H]1CCCN1C(=O)[C@H](CO)NC(=O)[C@H](CC(N)=O)NC(=O)[C@@H]1CCCN1C(=O)[C@H](C)NC(=O)[C@@H](N)CO)[C@@H](C)O)C(=O)N[C@H](C(=O)N1CCC[C@H]1C(=O)N1CCC[C@H]1C(=O)N1CCC[C@H]1C(=O)N[C@@H](C)C(=O)N[C@@H](CO)C(=O)O)[C@@H](C)O` [Peptide P1] (H-SAPNSPRTPLTPPPAS-OH) had a pKd in assay [1] of under 3.70.
Still for that read-out and setting: then `CC[C@H](C)[C@H](NC(=O)[C@H](Cc1c[nH]cn1)NC(=O)[C@@H](N)CCC(N)=O)C(=O)N1CCC[C@H]1C(=O)N[C@@H](CCCCN)C(=O)N[C@@H](CC(C)C)C(=O)N1CCC[C@H]1C(=O)N1CCC[C@H]1C(=O)N[C@@H](CCCCN)C(=O)N[C@H](C(=O)N[C@@H](Cc1ccc(O)cc1)C(=O)O)[C@@H](C)O` [Peptide P10] (H-QHIPKLPPKTY-OH; N-terminus and C-terminus assumed), with under 3.70.
`CC[C@H](C)[C@H](N)C(=O)N[C@@H](CO)C(=O)N[C@@H](CC(=O)O)C(=O)N1CCC[C@H]1C(=O)N1CCC[C@H]1C(=O)N[C@@H](CCC(=O)O)C(=O)N[C@@H](CO)C(=O)N1CCC[C@H]1C(=O)N1CCC[C@H]1C(=O)N[C@@H](CC(C)C)C(=O)N[C@@H](CC(C)C)C(=O)N1CCC[C@H]1C(=O)N1CCC[C@H]1C(=O)N[C@@H](CCCNC(=N)N)C(=O)N[C@@H](CCC(=O)O)C(=O)N1CCC[C@H]1C(=O)N[C@H](C(=O)N[C@@H](CCCNC(=N)N)C(=O)N[C@H](C(=O)N1CCC[C@H]1C(=O)N[C@@H](CC(=O)O)C(=O)N[C@H](C(=O)O)C(C)C)[C@@H](C)O)C(C)C` [Peptide P5] (H-ISDPPESPPLLPPREPVRTPDV-OH) showed a pKd in assay [1] of under 3.70.
`CC(C)C[C@H](NC(=O)[C@H](Cc1c[nH]cn1)NC(=O)[C@H](CC(C)C)NC(=O)[C@@H]1CCCN1C(=O)[C@H](CO)NC(=O)[C@H](CO)NC(=O)[C@@H](N)CO)C(=O)N[C@@H](CCC(N)=O)C(=O)N1CCC[C@H]1C(=O)N1CCC[C@H]1C(=O)N1CCC[C@H]1C(=O)N[C@@H](CC(C)C)C(=O)NCC(=O)N[C@@H](CCCCN)C(=O)N[C@@H](CCCCN)C(=O)O` [Peptide P6] (H-SSSPLHLQPPPLGKK-OH; N-terminus and C-terminus assumed) showed a pKd in assay [1] of under 3.70.
Same read-out and setting: as for `CC[C@H](C)[C@H](NC(=O)[C@H](CCCCN)NC(=O)[C@H](CO)NC(=O)[C@@H]1CCCN1C(=O)[C@H](CO)NC(=O)[C@H](CO)NC(=O)[C@H](CCC(=O)O)NC(=O)[C@H](C)NC(=O)[C@@H]1CCCN1C(=O)[C@H](C)NC(=O)[C@H](CO)NC(=O)[C@H](CCC(=O)O)NC(=O)[C@@H]1CCCN1C(=O)[C@H](CCCNC(=N)N)NC(=O)[C@H](CCCNC(=N)N)NC(=O)[C@H](CCCNC(=N)N)NC(=O)[C@@H]1CCCN1C(=O)[C@@H]1CCCN1C(=O)[C@@H](NC(=O)[C@@H]1CCCN1C(=O)[C@@H]1CCCN1C(=O)[C@@H]1CCCN1C(=O)[C@@H](NC(=O)[C@@H]1CCCN1C(=O)[C@@H](NC(=O)[C@@H](N)CCC(=O)O)C(C)C)C(C)C)C(C)C)C(=O)O` [Peptide P3] (H-EVPVPPPVPPRRRPESAPAESSPSKI-OH), the figure is 4.74.
`CC(C)C[C@H](NC(=O)[C@@H]1CCCN1C(=O)[C@@H]1CCCN1C(=O)[C@H](CO)NC(=O)[C@@H]1CCCN1C(=O)[C@H](CC(C)C)NC(=O)[C@H](Cc1c[nH]cn1)NC(=O)[C@@H](N)CCCNC(=N)N)C(=O)N[C@H](C(=O)N[C@@H](CCC(N)=O)C(=O)O)[C@@H](C)O` [Peptide P8] (H-RHLPSPPLTQ-OH; N-terminus and C-terminus assumed) showed a pKd in assay [1] of under 3.70.
Still for that read-out and setting: then `CC(C)C[C@H](NC(=O)[C@@H](NC(=O)[C@@H](N)C(C)C)[C@@H](C)O)C(=O)N1CCC[C@H]1C(=O)N[C@@H](Cc1c[nH]cn1)C(=O)NCC(=O)N1CCC[C@H]1C(=O)N[C@@H](CCCNC(=N)N)C(=O)N[C@@H](CO)C(=O)N[C@@H](C)C(=O)O` [Peptide P2] (H-VTLPHGPRSA-OH), with 4.36.
Still for that read-out and setting: then `CC(C)[C@H](NC(=O)[C@@H]1CCCN1C(=O)[C@@H]1CCCN1C(=O)[C@H](C)NC(=O)[C@H](CCC(=O)O)NC(=O)[C@H](CS)NC(=O)[C@@H](N)CCCNC(=N)N)C(=O)N1CCC[C@H]1C(=O)N1CCC[C@H]1C(=O)N[C@@H](CCCNC(=N)N)C(=O)N[C@@H](CCCNC(=N)N)C(=O)N[C@@H](CCC(=O)O)C(=O)N[C@@H](CCCNC(=N)N)C(=O)NCC(=O)O` [RP2, reference compound] (H-RCEAPPVPPRRERG-OH), with 4.68.
`CC[C@H](C)[C@H](N)C(=O)N[C@@H](C)C(=O)NCC(=O)N1CCC[C@H]1C(=O)N1CCC[C@H]1C(=O)N[C@H](C(=O)N1CCC[C@H]1C(=O)N1CCC[C@H]1C(=O)N[C@@H](CCCNC(=N)N)C(=O)N[C@@H](CCC(N)=O)C(=O)N[C@@H](CO)C(=O)O)C(C)C` [Peptide P9] (H-IAGPPVPPRQS-OH): the results for the negative-log Kd (pKd) in assay [1] and in assay [2] (read-out: Kd) were under 3.70 and 6.10, respectively. The Kd entry in assay [2] is “did not differ from the NCK1-3^wt”.
As to `C[C@H](N)C(=O)N[C@@H](Cc1ccccc1)C(=O)N[C@@H](Cc1ccccc1)C(=O)N1CCC[C@H]1C(=O)N[C@@H](CC(N)=O)C(=O)N[C@@H](CO)C(=O)N1CCC[C@H]1C(=O)N[C@@H](CO)C(=O)N1CCC[C@H]1C(=O)N[C@@H](Cc1ccccc1)C(=O)N[C@H](C(=O)N1CCC[C@H]1C(=O)N1CCC[C@H]1C(=O)N1CCC[C@H]1C(=O)N1CCC[C@H]1C(=O)N[C@@H](CCC(N)=O)C(=O)N[C@H](C(=O)N1CCC[C@H]1C(=O)N[C@@H](CO)C(=O)N1CCC[C@H]1C(=O)N[C@@H](Cc1c[nH]cn1)C(=O)NCC(=O)N[C@H](C(=O)O)[C@@H](C)O)[C@@H](C)O)[C@@H](C)O` [Peptide P7] (H-AFFPNSPSPFTPPPPQTPSPHGT-OH), the pKd in assay [1] is under 3.70; in assay [3] it was 4.64.
In assay [1], `CC(C)[C@H](N)C(=O)N1CCC[C@H]1C(=O)N[C@H](C(=O)N1CCC[C@H]1C(=O)N1CCC[C@H]1C(=O)N1CCC[C@H]1C(=O)N[C@H](C(=O)N1CCC[C@H]1C(=O)N1CCC[C@H]1C(=O)N[C@@H](CCCNC(=N)N)C(=O)N[C@@H](CCCNC(=N)N)C(=O)N[C@@H](CCCNC(=N)N)C(=O)O)C(C)C)C(C)C` [RP1, reference compound] showed a pKd of under 3.70.
